Experiments:
[1] = tested on: dopamine turnover in mice striatum; assay: Dopamine, DOPAC and HVA content / dopamine turnover in mice striatum (HPLC with electrochemical detection); type: in vivo, C57BL/6 mice; details: for dopamine turnover in mice: monotherapy vs combination, FIG. 3
Method: C57BL/6 mice (SLC, Shizuoka, Japan) were used for the experiment. […] The two drugs were orally administered by gavage 1 hour before sampling. At the time the mice were sacrificed, both striata were rapidly dissected and were frozen by liquid nitrogen. The samples were subsequently sonicated in 0.5 ml of chilled 0.5 M perchloric acid containing 0.1 M EDTA, and centrifuged at 13000 rpm for 15 min at 4° C. Then monoamine levels were measured by HPLC with electrochemical detection. Supernatant aliquots of 201 were separated over an Eicompak SC5-ODS column (3×150 mm; Eicom, Japan) with mobile phase of 17% methanol, 83% 0.1M acetate/citrate buffer (pH 3.5) containing 190 mg/ml sodium 1-octanesulfonate and 50 mg/ml EDTA, and a flow rate of 0.65 ml/min. Peaks of dopamine, DOPAC, HVA, 5-HT, and 5-HIAA were quantified by area integration with PowerChrom (eDAQ, Australia), and concentrations were expressed as nanograms per milligram of striatal tissue.

[2] = tested on: organotypic hippocampal slice cultures; assay: Oxygen-glucose deprivation (OGD) in organotypic hippocampal slice cultures (PI fluorescence in CA1); type: cell-based, Wistar rat
Method: (§1) Medium was changed every 3-4 days.
(§2) Neurotoxicity protocols are outlined below.
(2) Oxygen-Glucose Deprivation (OGD): Experimental ischaemia was performed by exposing cultures to oxygen-glucose deprivation (OGD) as described previously. […] OGD was induced by transferring cultures to glucose-free SFM (+PI) which had been saturated with 95% N2/5% CO2. Culture plates (without lids) were then sealed into an airtight chamber in which the atmosphere was saturated with 95% N2/5% CO2 by continuously blowing through gas at 10 L/min for ten minutes before being sealed and placed in the incubator for 50 mins (total time of OGD was therefore 60 mins). At the end of the period of OGD cultures were returned to normoxic SFM containing PI and placed back in the incubator for 23 hours.

[3] = tested on: organotypic hippocampal slice cultures; assay: Hypoxia-induced neurodegeneration in organotypic hippocampal slice cultures (PI fluorescence in CA1); type: cell-based, Wistar rat
Method: as §1, §2
(3) Hypoxia: Hypoxia was performed by exposing cultures to oxygen-deprivation as described previously. Pringle et al, Brain Research, 755:36-46 (1997); Pringle et al, Stroke, 27:2124-2130 (1996). Hypoxia was induced by transferring cultures to SFM (+PI) which had been saturated with 95% N2/5% CO2. Culture plates (without lids) were then sealed into an airtight chamber in which the atmosphere was saturated with 95% N2/5% CO2 by continuously blowing through gas at 10 L/min for ten minutes before being sealed and placed in the incubator for 170 mins (total time of hypoxia was therefore 180 mins). At the end of the period of hypoxia, cultures were returned to normoxic SFM (+PI) and placed back in the incubator for 21 hours. The freeradical scavenger MnTBAP (100 μM) was used as a positive neuroprotective control.

[4] = tested on: organotypic hippocampal slice cultures; assay: AMPA toxicity in organotypic hippocampal slice cultures (PI fluorescence in CA1); type: cell-based, Wistar rat
Method: as §1, §2
(1) AMPA: Cultures were transferred to fresh SFM (+PI) containing 30 μM S-AMPA for 3 hours under normal culture conditions. At the end of this period, cultures were returned to fresh SFM for 21 hours prior to determination of neuronal death by PI imaging. GYKI52466 (30 μM) was used as a positive, neuroprotective control.

[5] = tested on: organotypic hippocampal slice cultures; assay: Duroquinone free radical-mediated toxicity in organotypic hippocampal slice cultures (PI fluorescence in CA1); type: cell-based, Wistar rat; details: 100 μM; 100 μM duroquinone 3 hours; duroquinone alone 51.0±3.4%
Method: as §1, §2
(5) Free radical-mediated toxicity (Duroquinone): Duroquinone produces superoxide-mediated neurotoxicity producing a selective neuronal lesion in the CA1 region. Wilde et al, J. Neurochem., 69(2):883-886 (1997). Cultures were transferred to fresh SFM (+PI) containing 100 μM duroquinone for 3 hours under normal culture conditions. At the end of this period, cultures were returned to fresh SFM for 21 hours prior to determination of neuronal death by PI imaging. MnTBAP (100 μM) was used as a positive neuroprotective control.

[6] = C57BL/6, mouse, in vivo, po, 1 h

N#Cc1ccccc1-c1cc(-c2ccccn2)cn(-c2ccccc2)c1=O [2-(2-oxo-1-phenyl-5-pyridin-2-yl-1,2-dihydropyridin-3-yl)benzonitrile]
content of HVA in striatum ([1]; 1 mg/kg, orally, 1 hour before sampling, FIG. 1): elevated
dopamine turnover in mice [1]: modulated dopamine turnover but neither reached significance
effect on OGD-induced neurotoxicity ([2]; any other concentration assessed (up to 3 μM), OGD alone 50.6±5.2%): no significant effect
EC50 in OGD model ([2]; six-point concentration-response curve): could not be established
neuronal damage, % of CA1 with PI fluorescence ([3]; 5 μM, hypoxia alone 45.1±3.5%): 3.9±1.8%

CC1=NN=C(c2ccc(N)cc2)c2cc3c(cc2C1)OCO3 [GYKI52466]
neuronal damage, % of CA1 with PI fluorescence ([4]; 30 μM test compound, 30 μM AMPA 3 hours, AMPA alone 65.1±1.7%): 14.3±2.3%
neuronal damage, % of CA1 with PI fluorescence ([4]; 30 μM, pre-incubation series, AMPA alone 46.5±5.0%): 21.7±2.7%
neuronal damage, % of CA1 with PI fluorescence ([2]; 30 μM, 60 minutes OGD, OGD alone 50.6±5.2%): 36.9±3.6%

O=C(O)c1ccc(/C2=C3\C=CC(=N3)/C(c3ccc(C(=O)O)cc3)=c3/cc/c4[n]3[Mn]([Cl])[n]3c2ccc3/C(c2ccc(C(=O)O)cc2)=C2/C=CC(=N2)\C=4c2ccc(C(=O)O)cc2)cc1 [MnTBAP]
neuronal damage, % of CA1 with PI fluorescence ([2]; 100 μM, 60 minutes OGD, OGD alone 50.6±5.2%): 0.1±0.0%
neuronal damage, % of CA1 with PI fluorescence ([2]; 100 μM, second series, OGD alone 44.8±[…]): 0.6±0.2%
neuronal damage, % of CA1 with PI fluorescence [5]: 0.1±0.0%
neuronal damage, % of CA1 with PI fluorescence ([3]; 100 μM, 3 hours hypoxia, hypoxia alone 45.1±3.5%): 0.2±0.1%
neuronal damage, % of CA1 with PI fluorescence ([3]; 100 μM, repeated experiment, hypoxia alone 36.9±[…]): 0.8±0.4%
neuronal damage, % of CA1 with PI fluorescence ([3]; second set, hypoxia alone 36.4±[…]): 0.0±0.0%

COc1cc2c(cc1OC)C(=O)C(CC1CCN(Cc3ccccc3)CC1)C2 (stereo not shown) [donepezil, 1-benzyl-4-((5,6-dimethoxy-1-indanon)-2-yl)methylpiperidine]
content of dopamine in striatum ([1]; donepezil orally, 1 hour before sampling): reduced the content of dopamine significantly
DPAC/DA ([1]; donepezil orally, FIG. 2): increased significantly
HVA/DA ([1]; donepezil orally, FIG. 2): increased significantly
dopamine turnover in mice [1]: modulated dopamine turnover but neither reached significance
dose at which peripheral side effect was shown [6]: ≥ 7.5 mg/kg
